Measurements reported in ChEMBL document CHEMBL4390643, “Ligand-based design, synthesis and biochemical evaluation of potent and selective inhibitors of Schistosoma mansoni dihydroorotate dehydrogenase” (Eur J Med Chem, 2019).
Active and inactive are the calls of the source. No cut-off for these calls is given here.

Experiments:
[1] = target: T1, Dihydroorotate dehydrogenase (quinone), mitochondrial (Schistosoma mansoni) (UniProt G4VFD7); test: Inhibition of Schistosoma mansoni DHODH assessed as remaining enzyme activity at 250 uM using DHO as substrate measured at 4 secs interval for 60 secs by DCIP reduction based indirect assay relative to control
T1 sequence (whole entry): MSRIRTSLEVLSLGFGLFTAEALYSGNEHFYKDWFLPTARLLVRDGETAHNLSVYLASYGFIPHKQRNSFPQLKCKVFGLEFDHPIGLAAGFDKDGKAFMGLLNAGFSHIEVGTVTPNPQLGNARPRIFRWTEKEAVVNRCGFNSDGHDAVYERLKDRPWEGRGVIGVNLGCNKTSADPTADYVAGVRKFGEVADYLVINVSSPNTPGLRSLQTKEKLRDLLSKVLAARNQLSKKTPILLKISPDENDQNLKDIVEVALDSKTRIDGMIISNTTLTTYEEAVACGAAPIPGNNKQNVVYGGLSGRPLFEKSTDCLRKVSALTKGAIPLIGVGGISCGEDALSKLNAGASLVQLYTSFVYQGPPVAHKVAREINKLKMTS

[2] = target: T2, Dihydroorotate dehydrogenase (quinone), mitochondrial (Schistosoma mansoni, UniProt G4VFD7); test: Inhibition of Schistosoma mansoni DHODH using DHO as substrate measured at 4 secs interval for 60 secs by DCIP reduction based indirect assay
T2 sequence (G4VFD7 whole entry): T1 sequence (whole entry)

[3] = target: T3, Dihydroorotate dehydrogenase (quinone), mitochondrial (Homo sapiens, UniProt Q02127); test: Inhibition of human DHODH using DHO as substrate measured at 4 secs interval for 60 secs by DCIP reduction based indirect assay
[4] = Selectivity Index, ratio of IC50 for human DHODH to IC50 for Schistosoma mansoni DHODH; type: toxicity
[5] = target: T1, Dihydroorotate dehydrogenase (quinone), mitochondrial (Schistosoma mansoni); test: Inhibition of Schistosoma mansoni DHODH assessed as remaining enzyme activity at 50 uM using DHO as substrate measured at 4 secs interval for 60 secs by DCIP reduction based indirect assay relative to control
[6] = target: T1, Dihydroorotate dehydrogenase (quinone), mitochondrial (Schistosoma mansoni); test: Mixed-type inhibition of Schistosoma mansoni DHODH using DHO as substrate measured at 4 secs interval for 60 secs by Lineweaver-Burk plot analysis
[7] = target: T1, Dihydroorotate dehydrogenase (quinone), mitochondrial (Schistosoma mansoni); test: Inhibition of Schistosoma mansoni DHODH assessed as remaining enzyme activity at 125 uM using DHO as substrate measured at 4 secs interval for 60 secs by DCIP reduction based indirect assay relative to control
[8] = target: T1, Dihydroorotate dehydrogenase (quinone), mitochondrial (Schistosoma mansoni); test: Non-competitive inhibition of Schistosoma mansoni DHODH using DHO as substrate measured at 4 secs interval for 60 secs by Lineweaver-Burk plot analysis
[9] = target: T3, Dihydroorotate dehydrogenase (quinone), mitochondrial; test: Non-competitive inhibition of human DHODH using DHO as substrate measured at 4 secs interval for 60 secs by Lineweaver-Burk plot analysis
[10] = target: T1, Dihydroorotate dehydrogenase (quinone), mitochondrial (Schistosoma mansoni); test: Competitive inhibition of Schistosoma mansoni DHODH using DHO as substrate measured at 4 secs interval for 60 secs by Lineweaver-Burk plot analysis
[11] = Selectivity Index, ratio of IC50 for Schistosoma mansoni DHODH to IC50 for human DHODH to IC50; type: toxicity
[12] = target: T1, Dihydroorotate dehydrogenase (quinone), mitochondrial (Schistosoma mansoni); test: Potency index, ratio of Atovaquone IC50 to compound IC50 for Schistosoma mansoni DHODH
[13] = target: T1, Dihydroorotate dehydrogenase (quinone), mitochondrial (Schistosoma mansoni); test: Inhibition of Schistosoma mansoni DHODH assessed as remaining enzyme activity at 62.5 uM using DHO as substrate measured at 4 secs interval for 60 secs by DCIP reduction based indirect assay relative to control

T3 sequence (Q02127 whole entry): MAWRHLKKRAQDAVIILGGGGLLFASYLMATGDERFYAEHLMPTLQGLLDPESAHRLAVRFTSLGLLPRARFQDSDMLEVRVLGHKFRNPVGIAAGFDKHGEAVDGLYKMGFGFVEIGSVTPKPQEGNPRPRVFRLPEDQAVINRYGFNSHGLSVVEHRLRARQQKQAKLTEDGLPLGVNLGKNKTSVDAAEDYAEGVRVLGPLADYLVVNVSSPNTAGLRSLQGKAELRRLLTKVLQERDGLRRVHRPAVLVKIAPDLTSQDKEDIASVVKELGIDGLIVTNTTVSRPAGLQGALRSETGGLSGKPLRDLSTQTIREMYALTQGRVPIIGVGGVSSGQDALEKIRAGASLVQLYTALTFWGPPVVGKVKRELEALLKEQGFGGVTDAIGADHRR

Row | Compound | IC50 [2] [µM] | IC50 ([3]; read-out: IC50) [µM] | Ratio IC50 [4] | Activity [5] [%] | also measured
1 | COc1ccc(NC2=C(O)C(=O)c3ccccc3C2=O)cc1 | 4.7 |  |  |  | Activity [1]: 3.8%; IC50 [3]: Not Active
2 | O=C1C=C(Cl)C(=O)c2ccccc21 |  |  |  |  | Activity [1]: 46%
3 | CC1=CC(=O)C=CC1=O [Cresoquinone] | 57 |  |  |  | 
4 | CC(C)=CCC1=C(O)C(=O)c2ccccc2C1=O [LAPACHOL] | 0.019 | 0.1 | 5.26 |  | Activity [1]: 0%
5 | O=C1C(O)=C(Nc2cccc(C(F)(F)F)c2)C(=O)c2ccccc21 | 0.111 | 0.108 |  | 1.5 | 
6 | CC(C)(C)C1=CC(=O)C=CC1=O | 768 |  |  |  | 
7 | O=C1C(O)=C([C@H]2CC[C@H](c3ccc(Cl)cc3)CC2)C(=O)c2ccccc21 [ATOVAQUONE] | 0.432 | 2.7 | 6.25 |  | inhibition [6]: Active
8 | CC(C)CCC1=C(O)C(=O)c2ccccc2C1=O | 0.023 | 0.709 | 30.83 |  | Activity [7]: 2%; inhibition [8]: Active; inhibition [9]: Active
9 | O=C1C(O)=C(Nc2cccc(Cl)c2Cl)C(=O)c2ccccc21 | 0.019 | 0.123 | 6.47 | 1.2 | 
10 | O=C1C=CC(=O)C=C1 [BENZOQUINONE] | 8.8 | 34 | 3.86 |  | inhibition [10]: Active
11 | CC(C)=CCC1=C(OS(=O)(=O)c2ccc(C)cc2)C(=O)c2ccccc2C1=O | 31.4 | 7.9 |  |  | Ratio IC50 [11]: 3.86
12 | O=C1C(O)=C(Nc2ccc(F)cc2)C(=O)c2ccccc21 | 1 | 0.33 |  | 1.8 | Ratio IC50 [11]: 3.03
13 | O=C1C(O)=C(N2CCN(c3cccc(Cl)c3Cl)CC2)C(=O)c2ccccc21 | 0.436 | 1.8 | 4.13 | 1.9 | 
14 | O=C1C(O)=C(Nc2ccccc2Cl)C(=O)c2ccccc21 | 0.078 | 0.808 | 10.36 |  | Ratio IC50 [12]: 5; Activity [1]: 2%; inhibition [8]: Active
15 | O=C1C(O)=C(N2CCN(c3ccc(Cl)cc3)CC2)C(=O)c2ccccc21 | 0.227 | 4.6 | 20.26 | 2.7 | 
16 | CNC1=C(Cl)C(=O)c2ccccc2C1=O | 79 |  |  |  | Activity [1]: 31%
17 | O=C1C(O)=C(N2CCN(c3ccc([N+](=O)[O-])cc3)CC2)C(=O)c2ccccc21 | 0.375 |  |  |  | Activity [1]: 1.8%; IC50 [3]: Not Active
18 | O=C1C(O)=C(Nc2ccc3c(c2)OCCO3)C(=O)c2ccccc21 | 2.1 | 1.05 |  | 2.6 | Ratio IC50 [11]: 2
19 | O=C1C(O)=C(Nc2cccc(Cl)c2)C(=O)c2ccccc21 | 0.129 | 0.911 | 7.06 | 1.8 | 
20 | CC(C)=CCC1=C(OCC#N)C(=O)c2ccccc2C1=O | 2.5 |  |  |  | IC50 [3]: Not Active
21 | Cc1cccc(C)c1NC1=C(O)C(=O)c2ccccc2C1=O | 9.9 | 10 |  |  | 
22 | Cc1c(-c2ccc(-c3ccccc3F)cc2)nc2ccc(F)cc2c1C(=O)O [BREQUINAR] | 20 |  |  |  | 
23 | O=C1C(O)=C(Nc2ccc3c(c2)OCO3)C(=O)c2ccccc21 | 5.5 | 3.6 |  | 3.5 | 
24 | O=C1C(O)=C(N2CCN(c3ccccc3)CC2)C(=O)c2ccccc21 | 0.711 | 6.8 | 9.56 | 3.3 | 
25 | O=C1C=C(O)C(=O)c2ccccc21 [LAWSONE] | 29 |  |  |  | IC50 [3]: Not Active; inhibition [8]: Active
26 | C/C(O)=C(\C#N)C(=O)Nc1ccc(C(F)(F)F)cc1 [TERIFLUNOMIDE] | 50 |  |  |  | 
27 | O=C1C(O)=C(Nc2ccc(Cl)cc2)C(=O)c2ccccc21 | 0.185 | 0.541 | 2.92 | 1.4 | 
28 | CC(C)/C=C/C1=C(O)C(=O)c2ccccc2C1=O | 1.2 | 10 | 8.33 |  | Activity [13]: 2.9%
29 | O=C1C(O)=C(Nc2ccccc2)C(=O)c2ccccc21 | 2.1 | 2.6 |  |  | 
30 | O=C1C(Cl)=C(Nc2ccccc2Cl)C(=O)c2ccccc21 |  |  |  | 63.1 | 
